In patent publication US6649609B2, “Benzimidazole derivatives and pharmaceutical compositions comprising these compounds” (Neurosearch A/S, priority 1999, dated 2003):
“And” between values parts separate entries of the source, which are not always exact repeats. Identical values can stand only once. Marks after values point to notes of the source that are not given here.

How the values were obtained:
[1] = target: benzodiazepine receptor (GABAA receptor complex), cerebral cortex membranes; assay: In vitro inhibition of 3H-flunitrazepam (3H-FNM) binding; settings: inhibition of specific 3H-FNM (1 nM) binding, rat cerebral cortex membranes
Procedure: The GABA recognition site and the benzodiazepine modulatory unit can selectively be labelled with ^3H-muscimol and ^3H-flunitrazepam, respectively.
13A: In vitro inhibition of ^3H-flunitrazepam (^3H-FNM) binding
Preparations are performed at 0-4° C. unless otherwise indicated. Cerebral cortex from male Wistar rats (150-200 g) is homogenised for 5-10 sec in 20 ml Tris-HCl (30 mM, pH 7.4) using an Ultra-Turrax homogeniser. The suspension is centrifuged at 27,000× g for 15 min and the pellet is washed three times with buffer (centrifuged at 27,000× g for 10 min). The washed pellet is homogenized in 20 ml of buffer and incubated on a water bath (37° C.) for 30 min to remove endogenous GABA and then centrifuged for 10 min at 27,000× g. The pellet is then homogenized in buffer and centrifuged for 10 min at 27,000× g. The final pellet is resuspended in 30 ml buffer and the preparation is frozen and stored at −20° C.
The membrane preparation is thawed and centrifuged at 2° C. for 10 min at 27,000× g. The pellet is washed twice with 20 ml 50 mM Tris-citrate, pH 7.1 using an Ultra-Turrax homogeniser and centrifuged for 10 min at 27,000× g. The final pellet is resuspended in 50 mM Tris-citrate, pH 7.1 (500 ml buffer per g of original tissue), and then used for binding assays. Aliquots of 0.5 ml tissue are added to 25 μl of test solution and 25 μl of ^3H-FNM (1 nM, final concentration), mixed and incubated for 40 min at 2° C., Non-specific binding is determined using Clonazepam (1 μM, final concentration). After incubation the samples are added 5 ml of ice-cold buffer and poured directly onto Whatman GFIC glass fibre filters under suction and immediately washed with 5 ml ice-cold buffer. The amount of radioactivity on the filters is determined by conventional liquid scintillation counting. Specific binding is total binding minus non-specific binding.
The test value will be given as IC50 (the concentration (μM) of the test substance which inhibits the specific binding of ^3H-FNM by 50%). [formula]
Co is specific binding in control assays, and
Cx is the specific binding in the test assay.
(The calculations assume normal mass-action kinetics).

[2] = system: GABAA receptor-ion channel complex (forebrain); assay: In vivo inhibition of 3H-FNM binding; design: species or system mouse; settings: female NMRI mice, test substance i.v., inhibition of specific [3H]FNM binding in forebrain
Procedure: 13B: In vivo inhibition of ^3H-FNM binding
[^3H]FNM can also be used for in vivo receptor labelling studies in mouse. Accumulation of [^3H]FNM binding will occur all over the brain as GABAA receptors are widely distributed.
All test substances used are solutions prepared in 10% TWEEN 80. Groups of three female NMRI mice (25 g) are injected i.v. via the tail vein with 5.0 μCi of [3H]FNM in 0.2 ml saline. Fifteen min after injection with [^3H]FNM the test substance is administered i.v. Twenty min after injection with [^3H]FNM, mice are killed by decapitation, the forebrains rapidly excised and homogenized in 12 ml of ice-cold 50 mM Tris-citrate, pH 7.1 using an Ultra-Turrax homogenizer. Three aliquots of 1 ml are immediately filtered through GF/C glass fibre filters and washed with 2×5 ml of ice-cold buffer. The amounts of radioactivity on the filters and in 200 μl of the homogenate are determined by conventional scintillation counting. Groups of untreated mice serves as controls. To determine non-specific binding groups of mice are injected with Clonazepam (25 mg/kg) i.p. 10 min before [3H]FNM injection. Specific binding is the amount of binding in controls minus the amount of binding in Clonazepam treated mice.
The ED50 value is determined from dose response curves. […] [formula]
where Co is specific binding in controls and Cx is the specific binding in mice treated with test substance.

[3] = system: clonic convulsions induced by pentylenetetrazol (PTZ); assay: PTZ clonic convulsions; type: in vivo; settings: female NMRI mice; for ED100: i.v., dose increasing the PTZ threshold to 100 mg PTZ/kg (linear regression); for ptz threshold at 30 mg/kg: test substance 30 mg/kg i.v., PTZ infused after 5 min, vehicle threshold 37-39 mg PTZ/kg
Procedure: The purpose of this test is to show antagonism of clonic convulsions induced by pentylenetetrazol (PTZ). PTZ induces clonic convulsions in mice after i.v. infusion. Antagonism of PTZ-induced convulsions is a measure for the agonistic character of ligands for the benzodiazepine recognition site.
Female NMRI mice (Bomholdtgaard, Ry), 20 g, 6 mice in each group are administered i.v. with vehicle or test substance. After five minutes the PTZ-solution is infused intravenously at a speed of 0.7 ml/minute through a cannula placed in the tail vein. The time from initiation of the infusion to appearance of clonic convulsions is recorded.
The dose of PTZ required for inducing convulsion in each mouse is calculated as PTZ/kg body weight. Means ±sd for each experimental group of 6 mice is calculated. ED100 is calculated by linear regression expressing the dose increasing the PTZ threshold to 100 mg PTZ/kg.
The threshold of vehicle treated controls is in the range of 37-39 mg PTZ/kg. As a control in each series of experiments PTZ is infused into 6 vehicle treated mice.

pigs = assay: Evaluation of efficacy: anaesthesia after bolus injection; type: in vivo; settings: pigs 25-30 kg; for Induction Time / Maintained anaesthesia / Normalising time following awakening: i.v. bolus, dose per compound as in Table 10 (0.03-3 mg/kg)
Procedure: Aqueous solutions of the test substances (50 mg/ml isotonic glucose) were administered to pigs (25-30 kg) as bolus injections. The actual dose of each substance is included in the table below.
These observations are compiled in Table 10 below. This table also provides comparative data for compounds of the prior art (WO 98/17651).

| Structure (SMILES) | IC50 [1] [nM] | In vivo binding ED50 [2] [mg/kg] | ED100 [3] [mg/kg] | ptz threshold at 30 mg/kg [3] [mg/kg] | melting point | Induction Time (pigs) [min] | Maintained anaesthesia (pigs) | Normalising time following awakening (pigs) [min] | Observation on anaesthesia (footnote to Maintained anaesthesia) (pigs; bolus 3 mg/kg) |
| --- | --- | --- | --- | --- | --- | --- | --- | --- | --- |
| COC(=O)c1cn(-c2cccc(-n3cnc4cc(-c5ccoc5)ccc43)c2)cn1 [Compound 7c, 5-(3-Furanyl)-1-(3-(4-methoxycarbonyl-1-imidazolyl)-phenyl)-benzimidazole] | 0.7 | 0.43 | 20 | 110 | 221 to 223 °C | – | – | – | – |
| CCOC(=O)CN1CCC(c2cccc(-n3cnc4cc(-c5ccoc5)ccc43)c2)CC1 [Compound 7g, 5-(3-Furanyl)-1-(3-(1-ethoxycarbonylmethyl-4-piperidyl)-phenyl)-benzimidazole] | 0.9 | 1.4 | 1.2 | 200 | 114.5 to 115 °C and 114 to 115 °C | – | – | – | – |
| CCOC(=O)CN1CCN(c2cccc(-n3cnc4cc(C(=O)OCCOC)ccc43)c2)CC1 [Compound 1b, 2-Methoxyethyl 1-(3-(4-(ethoxy-carbonyl-methyl)-1-piperazinyl)-phenyl)-benzimidazole-5-carboxylate] | 260 | 0.9 | 1.6 | 200 | – | 1.3 | 10^ min. | 15 | – |
| CC(=O)N1CCN(CCOC(=O)c2cccc(-n3cnc4cc(-c5ccoc5)ccc43)c2)CC1 [Compound 7j, 2-(1-Acetyl-4-piperazinyl)-ethyl 3-(5-(3-furanyl)-1-benzimidazolyl)-benzoate] | 2.8 | 1.9 | 13 | 170 | – | 0.5 | 8^a min. | 20 | ^aUneasy sleep |
